Measured values taken from the supplement of paper PMC11424490.

Experiments:
SW837 [1] = experiment: fitted bottom plateau of viability curve, % of DMSO control; higher = less maximal inhibition; extreme values may be limits of the assay
Protocol: (§1)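 CellTiter-Glo proliferation assay in KRAS G12C mutant NCI-H2122 (72 h), SW837 (144 h) and NCI-H358 cells in 384-well plates. Monotherapy dose response was fitted with a four-parameter curve after normalisation to DMSO controls (% of control, PoC). IC50 is the relative IC50, averaged over replicates. Bottom is the fitted lower plateau in %PoC; Max.Conc. is the top dose tested.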

NCI-H2122 [2] = experiment: as above
Protocol: as §1

NCI-H2122 [3] = experiment: relative IC50 of cell viability (CellTiter-Glo); higher = less potent
Protocol: as §1

SW837 [4] = experiment: combination cScore with sotorasib (Bliss gap around IC50) (%PoC); higher = stronger additive effect
In short: (§2)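 NCI-H2122, NCI-H358 and SW837 cells were plated in 384-well plates at 500 or 800 cells per well, treated with concentration matrices after 24 h, and grown for 72 h (SW837 for 144 h). Luminescence from CellTiter-Glo was expressed as percent of control relative to vehicle wells and fitted with four-parameter curves. The score is the mean Bliss-independence gap, expected minus measured viability, across a field around both monotherapy IC50 values, or across the top concentrations where no IC50 was reached.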

NCI-H2122 [5] = experiment: as above
In short: as §2

SMILES	fitted bottom plateau of viability curve (SW837 [1]) [%]	fitted bottom plateau of viability curve (NCI-H2122 [2]) [%]	relative IC50 of cell viability (NCI-H2122 [3]) [nM]	combination cScore with sotorasib (SW837 [4])	combination cScore with sotorasib (NCI-H2122 [5])
COc1ccc2nc3ccc(OC)cc3c(SCCCN)c2c1 (top concentration tested 10000 nM)	84.2	59	9650	–	–
C[C@@H](Oc1cc(-c2cnn(C3CCNCC3)c2)cnc1N)c1c(Cl)ccc(F)c1Cl (top concentration tested 10000 nM)	31.9	4.25	1230	–	–
O=[N+]([O-])c1ccc(NCCNc2ncc(-c3ncc[nH]3)c(-c3ccc(Cl)cc3Cl)n2)nc1 (top concentration tested 10000 nM)	91.7	43.5	8950	–	–
CC1(C)CCC(CN2CCN(c3ccc(C(=O)NS(=O)(=O)c4ccc(NCC5CCOCC5)c([N+](=O)[O-])c4)c(Oc4cnc5[nH]ccc5c4)c3)CC2)=C(c2ccc(Cl)cc2)C1 [ABT-199] (top concentration tested 10000 nM)	95.3	65.6	8090	–	–
CO[C@H]1/C=C/C[C@H](C)[C@@H](C)S(=O)(=O)NC(=O)c2ccc3c(c2)N(C[C@@H]2CC[C@H]21)C[C@@]1(CCCc2cc(Cl)ccc21)CO3 [AMG176] (top concentration tested 10000 nM)	96.3	45.9	3120	–	–
COc1cc(OC2CCN(C)CC2)ccc1Nc1ncc2c(n1)n(C1CCCC1)c(=O)n2C [AZ3146] (top concentration tested 10000 nM)	57.4	39.4	6060	–	–
Nc1ncn([C@@H]2O[C@H](CO)[C@@H](O)[C@H]2O)c(=O)n1 [Azacitidine] (top concentration tested 9999.8 nM)	93	14.4	1940	–	–
Nc1ncn([C@H]2C[C@H](O)[C@@H](CO)O2)c(=O)n1 [Decitabine] (top concentration tested 10000 nM)	54	57.7	1360	–	–
O=c1[nH]cc(F)c(=O)[nH]1 [Fluorouracil (5-FU)] (top concentration tested 1000.2 nM)	96.6	64.6	945	–	–
COc1ncc(-c2nc3c(n2C(C)C)[C@H](c2ccc(Cl)cc2)N(c2cc(Cl)cn(C)c2=O)C3=O)c(OC)n1 [HDM-201] (top concentration tested 9999.9 nM)	84.1	25.1	126	–	–
CC(C)NC[C@@H](C(=O)N1CCN(c2ncnc3c2[C@H](C)C[C@H]3O)CC1)c1ccc(Cl)cc1 [Ipatasertib] (top concentration tested 10000 nM)	85.8	57.9	642	–	–
COc1ccccc1-c1cc(Nc2cccc(CS(N)(=O)=O)c2)ncn1 [LDC-067] (top concentration tested 10000 nM)	87.9	47.3	6690	–	–
Cc1ccc(NC(=O)c2ccnc(C(F)(F)F)c2)cc1-c1cc(OCCO)nc(N2CCOCC2)c1 [LXH-254] (top concentration tested 1000 nM)	94.2	63.6	200	–	–
N[C@@H](Cc1ccc(N(CCCl)CCCl)cc1)C(=O)O [Melphalan] (top concentration tested 10000 nM)	52.1	46.6	2140	–	–
CCc1cccc(CC)c1NC(=O)c1nn(C)c2c1CCc1cnc(Nc3ccc(C(=O)NC4CCN(C)CC4)cc3OC(F)(F)F)nc1-2 [NMS-P715] (top concentration tested 10000 nM)	58.9	48.7	3960	–	–
O=c1cc(N2CCOCC2)oc2c(-c3cccc4c3sc3ccccc34)cccc12 [NU-7441] (top concentration tested 10000 nM)	70.7	42.8	3430	–	–
Cc1cn(-c2cc(NC(=O)c3ccc(C)c(Nc4nccc(-c5cccnc5)n4)c3)cc(C(F)(F)F)c2)cn1 [Nilotinib] (top concentration tested 10000 nM)	68.8	14	2510	–	–
CCCC(CCC)C(=O)O [Valproic acid] + C=CC(=O)N1CCN(c2nc(=O)n(-c3c(C)ccnc3C(C)C)c3nc(-c4c(O)cccc4F)c(F)cc23)[C@@H](C)C1 [sotorasib]	–	–	–	-2.1	-1.96
C[C@]1(c2nc3c(C(N)=O)cccc3[nH]2)CCCN1 [Veliparib] + C=CC(=O)N1CCN(c2nc(=O)n(-c3c(C)ccnc3C(C)C)c3nc(-c4c(O)cccc4F)c(F)cc23)[C@@H](C)C1 [sotorasib]	–	–	–	7.52	18.6
CC[C@]1(O)C[C@@H]2CN(CCc3c([nH]c4ccccc34)[C@@](C(=O)OC)(c3cc4c(cc3OC)N(C)[C@H]3[C@@](O)(C(=O)OC)[C@H](OC(C)=O)[C@]5(CC)C=CCN6CC[C@]43[C@@H]65)C2)C1 [Vinblastine] + C=CC(=O)N1CCN(c2nc(=O)n(-c3c(C)ccnc3C(C)C)c3nc(-c4c(O)cccc4F)c(F)cc23)[C@@H](C)C1 [sotorasib]	–	–	–	8.44	6.11
CCC1=C[C@@H]2CN(C1)Cc1c([nH]c3ccccc13)[C@@](C(=O)OC)(c1cc3c(cc1OC)N(C)[C@H]1[C@@](O)(C(=O)OC)[C@H](OC(C)=O)[C@]4(CC)C=CCN5CC[C@]31[C@@H]54)C2 [Vinorelbine] + C=CC(=O)N1CCN(c2nc(=O)n(-c3c(C)ccnc3C(C)C)c3nc(-c4c(O)cccc4F)c(F)cc23)[C@@H](C)C1 [sotorasib]	–	–	–	4.13	1.79
CS(=O)(=O)c1ccc(C(=O)Nc2ccc(Cl)c(-c3ccccn3)c2)c(Cl)c1 [Vismodegib] + C=CC(=O)N1CCN(c2nc(=O)n(-c3c(C)ccnc3C(C)C)c3nc(-c4c(O)cccc4F)c(F)cc23)[C@@H](C)C1 [sotorasib]	–	–	–	9.42	12.1
O=C(CCCCCCC(=O)Nc1ccccc1)NO [Vorinostat] + C=CC(=O)N1CCN(c2nc(=O)n(-c3c(C)ccnc3C(C)C)c3nc(-c4c(O)cccc4F)c(F)cc23)[C@@H](C)C1 [sotorasib]	–	–	–	14.9	8.52
CN[C@H]1CN(c2ccc3c(=O)c(C(=O)O)cn(-c4nccs4)c3n2)C[C@@H]1OC [Vosaroxin] + C=CC(=O)N1CCN(c2nc(=O)n(-c3c(C)ccnc3C(C)C)c3nc(-c4c(O)cccc4F)c(F)cc23)[C@@H](C)C1 [sotorasib]	–	–	–	13.2	13.3
COc1cc2nccc(Oc3ccc(NC(=O)C4(C(=O)Nc5ccc(F)cc5)CC4)cc3)c2cc1OC [XL-184] + C=CC(=O)N1CCN(c2nc(=O)n(-c3c(C)ccnc3C(C)C)c3nc(-c4c(O)cccc4F)c(F)cc23)[C@@H](C)C1 [sotorasib]	–	–	–	14	11.7
